Data as given in BindingDB's records for doi:10.1021/bi020016x (Weizmann Institute of Science, 2002).

Legend:
[1] = biological target: Acetylcholinesterase (Tetronarce californica, UniProt P04058); assay: Enzyme Inhibition Assay; conditions: pH 7.5; 25 °C
Procedure: (§1) The cholinesterase assays were performed using colorimetric method reported by Ellman. Enzyme activity was determined by measuring the absorbance at 412 nm for 2 min, relative to the drug-free control. Triplicate measurements were carried out at a total of 8 drug concentrations. The IC50 values were determined from a plot of percentage of inhibition vs -log [drug].

[2] = biological target: Acetylcholinesterase (Homo sapiens, UniProt P22303); assay: Enzyme Inhibition Assay; conditions: pH 7.5; 25 °C
Acetylcholinesterase (Homo sapiens, UniProt P22303), sequence (P22303 whole entry): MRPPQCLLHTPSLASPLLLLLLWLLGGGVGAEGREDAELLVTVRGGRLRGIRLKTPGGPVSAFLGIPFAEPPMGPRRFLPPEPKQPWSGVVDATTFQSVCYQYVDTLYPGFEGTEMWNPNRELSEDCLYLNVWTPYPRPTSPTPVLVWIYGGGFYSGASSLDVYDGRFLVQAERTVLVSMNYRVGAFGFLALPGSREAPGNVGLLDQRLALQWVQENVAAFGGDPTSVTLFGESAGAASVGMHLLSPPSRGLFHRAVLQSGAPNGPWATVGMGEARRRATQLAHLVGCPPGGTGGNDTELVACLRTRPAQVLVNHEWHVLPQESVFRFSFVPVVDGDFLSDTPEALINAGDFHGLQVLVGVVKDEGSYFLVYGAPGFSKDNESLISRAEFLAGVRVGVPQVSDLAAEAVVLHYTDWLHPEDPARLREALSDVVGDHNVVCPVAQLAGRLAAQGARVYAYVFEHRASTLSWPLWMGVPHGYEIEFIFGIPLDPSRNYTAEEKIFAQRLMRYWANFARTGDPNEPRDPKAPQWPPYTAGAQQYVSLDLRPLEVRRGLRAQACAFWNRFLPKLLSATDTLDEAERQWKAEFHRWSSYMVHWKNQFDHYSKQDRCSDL
Procedure: as §1

Acetylcholinesterase (Tetronarce californica, UniProt P04058), sequence (P04058 whole entry): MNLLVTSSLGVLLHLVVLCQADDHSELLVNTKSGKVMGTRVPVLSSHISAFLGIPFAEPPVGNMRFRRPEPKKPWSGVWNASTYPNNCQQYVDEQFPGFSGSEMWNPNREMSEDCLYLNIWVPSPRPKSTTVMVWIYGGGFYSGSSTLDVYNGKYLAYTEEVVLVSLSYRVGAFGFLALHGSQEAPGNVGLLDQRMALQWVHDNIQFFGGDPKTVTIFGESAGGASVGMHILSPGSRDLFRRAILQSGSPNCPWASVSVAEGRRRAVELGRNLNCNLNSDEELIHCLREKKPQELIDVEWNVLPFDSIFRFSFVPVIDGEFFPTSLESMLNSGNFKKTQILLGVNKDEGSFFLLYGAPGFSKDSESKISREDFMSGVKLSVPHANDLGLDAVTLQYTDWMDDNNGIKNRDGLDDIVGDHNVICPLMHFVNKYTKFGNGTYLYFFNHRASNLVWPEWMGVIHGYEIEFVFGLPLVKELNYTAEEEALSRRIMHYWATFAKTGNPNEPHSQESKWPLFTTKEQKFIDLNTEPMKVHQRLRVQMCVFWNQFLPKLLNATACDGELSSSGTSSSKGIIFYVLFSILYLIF

Question: What does the source list for `C[C@@H](c1cccc(O)c1)N(C)C` [3-[1-(dimethylamino)ethyl]phenol]?
Answer: Ki [1]: 0.7 µM; Ki [2]: 33 µM
